Assay results taken from patent publication US12146004B2, “Polymyxin compounds and uses thereof” (priority 2014, dated 2024).
Values after ≈ are worked out from the molar mass of the structure shown. Read-outs that look alike come from different tables or passages of the source. Numbered stars: 1 amine (or outer) side, 2 acyl side, 3 side chain; on linkers, the order of the positions; unused ones are H or OH. Bridge positions count the residues as written; N and C are the ends. Square brackets hold non-standard residues; d marks the D form. Peptide text beside a SMILES is read from it. * marks the point of attachment. ξ: configuration not given here. X5 = CCCCCCCCc1ccc(C[C@@H](N[*:1])C(=O)[*:2])cc1; X13 = NCC[C@H](OCc1ccc(Cl)cc1)C(=O)*; Octanoyl(6-Me) = CCC(C)CCCCC(=O)*; dCha = N[C@H](CC1CCCCC1)C(=O)O; Thr(3ξ) = CC(O)[C@H](N)C(=O)O; X7 = NCC(CC(=O)*)c1ccccc1; X8 = NCC(C(=O)*)C1CCCCC1; Dab = NCC[C@H](N)C(=O)O; Dap = NC[C@H](N)C(=O)O

Experiments:
Type in all cases: cell-based
HK-2 cells = tested on: HK-2 cells
Description: Values are reported relative to Polymyxin B.

Acinetobacter baumannii = tested on: Acinetobacter baumannii
In short: (§1)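 Values are minimum inhibitory concentrations, reported in μg/mL. Compounds were tested for susceptibility against up to nine strains per organism, including resistant isolates.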

Klebsiella pneumoniae = tested on: Klebsiella pneumoniae
In short: as §1

Escherichia coli = tested on: Escherichia coli
In short: as §1

Pseudomonas aeruginosa = tested on: Pseudomonas aeruginosa
In short: as §1

Row | HK-2 IC50 (HK-2 cells) [mg/L] | MIC A. baumanii 053 (Acinetobacter baumannii) [mg/L] | MIC A. baumanii 056 (Acinetobacter baumannii) [mg/L] | MIC A. baumanii ATCC BAA-747 (Acinetobacter baumannii) [mg/L] | MIC A. baumanii NCTC 13424 (Acinetobacter baumannii) [mg/L] | MIC K. pneumoniae 063 (Klebsiella pneumoniae) [mg/L] | MIC K. pneumoniae 065 (Klebsiella pneumoniae) [mg/L] | MIC K. pneumoniae ATCC 13882 (Klebsiella pneumoniae) [mg/L] | MIC E. coli 058 (Escherichia coli) [mg/L] | MIC E. coli 061 (Escherichia coli) [mg/L] | MIC E. coli ATCC 25922 (Escherichia coli) [mg/L] | MIC E. coli NCTC 9001 (Escherichia coli) [mg/L] | MIC P. aeruginosa 068 (Pseudomonas aeruginosa) [mg/L] | MIC P. aeruginosa 070 (Pseudomonas aeruginosa) [mg/L] | MIC P. aeruginosa ATCC 27853 (Pseudomonas aeruginosa) [mg/L] | MIC P. aeruginosa CCUG 59347 (Pseudomonas aeruginosa) [mg/L] | MIC K. pneumoniae ATCC 4352 (Klebsiella pneumoniae) [mg/L] | SMILES | other results
1 | 206 | >32 | 32 (≈ 29.2 µM) | 0.06 (≈ 0.0547 µM) | 0.06 (≈ 0.0547 µM) | 16 (≈ 14.6 µM) | 1.5 (≈ 1.37 µM) | 0.125 (≈ 0.114 µM) | 4 (≈ 3.65 µM) | 8 (≈ 7.3 µM) | 0.125 (≈ 0.114 µM) | 0.06 (≈ 0.0547 µM) | 4 (≈ 3.65 µM) | 4 (≈ 3.65 µM) | 0.5 (≈ 0.456 µM) | 0.5 (≈ 0.456 µM) |  | CCCCC(CCN)C(=O)N[C@H](C(=O)N[C@@H](CN)C(=O)N[C@H]1CCNC(=O)[C@H]([C@@H](C)O)NC(=O)[C@H](CCN)NC(=O)[C@H](CCN)NC(=O)[C@H](CC(C)C)NC(=O)[C@@H](CC2CCCCC2)NC(=O)[C@H](CCN)NC1=O)[C@@H](C)O (single isomer, unassigned; isomer 2) [Example 41, 2-(2-aminoethyl) hexanoyl L-Thr-L-Dap-polymyxin [D-cyclohexylalanine]-6 heptapeptide. Isomer 2] | cytotoxicity (HK-2 cells): significantly lower cytotoxicity compared with C6
2 |  |  |  |  |  |  |  |  |  |  |  |  |  |  |  |  |  | CC(C)C[C@@H]1NC(=O)[C@@H](CC2CCCCC2)NC(=O)[C@H](CCN)NC(=O)[C@@H](NC(=O)[C@H](CN)NC(=O)[C@@H](NC(=O)CC(CN)c2ccccc2)C(C)O)CCNC(=O)[C@H]([C@@H](C)O)NC(=O)[C@H](CCN)NC(=O)[C@H](CCN)NC1=O (stereo partly drawn) [Example 39, 4-amino-3-phenylbutanoyl L-Thr-L-Dap-polymyxin [D-cyclohexylalanine]-6 heptapeptide.] (X7-[Thr(3ξ)][Dap][Dab][Dab][dCha]L[Dab][Dab]T; lactam 3-C) | HK-2 IC50 (HK-2 cells; HK-2 cells): 337 mg/L; MIC A. baumanii 053 (Acinetobacter baumannii; strain 053): 32 mg/L (≈ 28.7 µM); MIC A. baumanii 056 (Acinetobacter baumannii; strain 056): 64 mg/L (≈ 57.3 µM); MIC A. baumanii ATCC BAA-747 (Acinetobacter baumannii; strain ATCC BAA-747): 0.06 mg/L (≈ 0.0537 µM); MIC A. baumanii NCTC 13424 (Acinetobacter baumannii; strain NCTC 13424): 0.03 mg/L (≈ 0.0269 µM); MIC K. pneumoniae 063 (Klebsiella pneumoniae; strain 063): 64 mg/L (≈ 57.3 µM); MIC K. pneumoniae 065 (Klebsiella pneumoniae; strain 065): 4 mg/L (≈ 3.58 µM); MIC K. pneumoniae ATCC 13882 (Klebsiella pneumoniae; strain ATCC 13882): 0.125 mg/L (≈ 0.112 µM); MIC E. coli 058 (Escherichia coli; strain 058): 4 mg/L (≈ 3.58 µM); MIC E. coli 061 (Escherichia coli; strain 061): 32 mg/L (≈ 28.7 µM); MIC E. coli ATCC 25922 (Escherichia coli; strain ATCC 25922): 0.125 mg/L (≈ 0.112 µM); MIC E. coli NCTC 9001 (Escherichia coli; strain NCTC 9001): 0.06 mg/L (≈ 0.0537 µM); MIC P. aeruginosa 068 (Pseudomonas aeruginosa; strain 068): 4 mg/L (≈ 3.58 µM); MIC P. aeruginosa 070 (Pseudomonas aeruginosa; strain 070): 4 mg/L (≈ 3.58 µM); MIC P. aeruginosa ATCC 27853 (Pseudomonas aeruginosa; strain ATCC 27853): 0.5 mg/L (≈ 0.448 µM); MIC P. aeruginosa CCUG 59347 (Pseudomonas aeruginosa; strain CCUG 59347): 0.5 mg/L (≈ 0.448 µM)
3 | 99 | 32 (≈ 28.7 µM) | 16 (≈ 14.3 µM) | 0.125 (≈ 0.112 µM) | 0.06 (≈ 0.0537 µM) | 32 (≈ 28.7 µM) | 4 (≈ 3.58 µM) | 0.125 (≈ 0.112 µM) | 2 (≈ 1.79 µM) | 16 (≈ 14.3 µM) | 0.25 (≈ 0.224 µM) | 0.125 (≈ 0.112 µM) | 4 (≈ 3.58 µM) | 4 (≈ 3.58 µM) | 0.25 (≈ 0.224 µM) | 0.25 (≈ 0.224 µM) | 0.125 (≈ 0.112 µM) | CC(C)C[C@@H]1NC(=O)[C@@H](CC2CCCCC2)NC(=O)[C@H](CCN)NC(=O)[C@@H](NC(=O)[C@H](CN)NC(=O)[C@@H](NC(=O)C(CN)Cc2ccccc2)C(C)O)CCNC(=O)[C@H]([C@@H](C)O)NC(=O)[C@H](CCN)NC(=O)[C@H](CCN)NC1=O (single isomer, unassigned; isomer 2) [Example 34, 3-amino-2-benzylpropanoyl L-Thr-L-Dap-polymyxin [D-cyclohexylalanine]-6 heptapeptide. Isomer 2] | 
4 | 73 |  | 64 (≈ 57.7 µM) | 0.25 (≈ 0.226 µM) | 0.06 (≈ 0.0541 µM) | 16 (≈ 14.4 µM) |  | 0.25 (≈ 0.226 µM) | 2 (≈ 1.8 µM) | 16 (≈ 14.4 µM) | 0.25 (≈ 0.226 µM) | 0.125 (≈ 0.113 µM) | 4 (≈ 3.61 µM) | 4 (≈ 3.61 µM) | 0.5 (≈ 0.451 µM) | 0.5 (≈ 0.451 µM) | 0.06 (≈ 0.0541 µM) | CC(C)C[C@@H]1NC(=O)[C@@H](CC2CCCCC2)NC(=O)[C@H](CCN)NC(=O)[C@@H](NC(=O)[C@H](CN)NC(=O)[C@@H](NC(=O)CC(N)C2CCCCC2)C(C)O)CCNC(=O)[C@H]([C@@H](C)O)NC(=O)[C@H](CCN)NC(=O)[C@H](CCN)NC1=O (single isomer, unassigned; isomer 1) [Example 32, 3-amino-3-cyclohexylpropanoyl L-Thr-L-Dap-polymyxin [D-cyclohexylalanine]-6 heptapeptide. Isomer 1] | 
5 | 52 | 32 (≈ 27.1 µM) | 32 (≈ 27.1 µM) | 0.125 (≈ 0.106 µM) | 0.125 (≈ 0.106 µM) | 16 (≈ 13.5 µM) | 2 (≈ 1.69 µM) | 0.25 (≈ 0.212 µM) | 2 (≈ 1.69 µM) | 16 (≈ 13.5 µM) | 0.125 (≈ 0.106 µM) |  | 4 (≈ 3.39 µM) | 4 (≈ 3.39 µM) | 0.25 (≈ 0.212 µM) | 0.25 (≈ 0.212 µM) |  | CC(C)C[C@@H]1NC(=O)[C@@H](CC2CCCCC2)NC(=O)[C@H](CCN)NC(=O)[C@@H](NC(=O)[C@H](CN)NC(=O)[C@@H](NC(=O)[C@H](CCN)OCc2ccc(Cl)cc2)[C@@H](C)O)CCNC(=O)[C@H]([C@@H](C)O)NC(=O)[C@H](CCN)NC(=O)[C@H](CCN)NC1=O [Example 74, (S)-4-amino-2-((4-chlorobenzyl)oxy) butanoyl L-Thr-L-Dap-polymyxin [D-cyclohexylalanine]-6 heptapeptide.] (X13-T[Dap][Dab][Dab][dCha]L[Dab][Dab]T; lactam 3-C) | 
6 | 86 | 16 (≈ 14.4 µM) | 4 (≈ 3.61 µM) | 0.06 (≈ 0.0541 µM) | 0.125 (≈ 0.113 µM) | 8 (≈ 7.22 µM) | 1 (≈ 0.902 µM) |  | 1 (≈ 0.902 µM) | 8 (≈ 7.22 µM) | 0.25 (≈ 0.226 µM) | 0.125 (≈ 0.113 µM) | 4 (≈ 3.61 µM) | 4 (≈ 3.61 µM) | 0.25 (≈ 0.226 µM) | 0.5 (≈ 0.451 µM) | 0.125 (≈ 0.113 µM) | CC(C)C[C@@H]1NC(=O)[C@@H](CC2CCCCC2)NC(=O)[C@H](CCN)NC(=O)[C@@H](NC(=O)[C@H](CN)NC(=O)[C@@H](NC(=O)C(CN)C2CCCCC2)C(C)O)CCNC(=O)[C@H]([C@@H](C)O)NC(=O)[C@H](CCN)NC(=O)[C@H](CCN)NC1=O (stereo partly drawn) [Example 28, 3-Amino-2-cyclohexylpropanoyl L-Thr-L-Dap-polymyxin [D-cyclohexylalanine]-6 heptapeptide] (X8-[Thr(3ξ)][Dap][Dab][Dab][dCha]L[Dab][Dab]T; lactam 3-C) | 
7 | 17 | 64 (≈ 52.9 µM) | 32 (≈ 26.5 µM) | 0.5 (≈ 0.413 µM) |  | 32 (≈ 26.5 µM) | 1 (≈ 0.827 µM) |  | 2 (≈ 1.65 µM) | 8 (≈ 6.61 µM) | 0.5 (≈ 0.413 µM) |  | 4 (≈ 3.31 µM) | 4 (≈ 3.31 µM) | 1 (≈ 0.827 µM) |  | 0.5 (≈ 0.413 µM) | CCC(C)CCCCC(=O)N[C@@H](CCN)C(=O)N[C@H](C(=O)N[C@@H](CCN)C(=O)N[C@H]1CCNC(=O)[C@H](C(C)O)NC(=O)[C@H](CCN)NC(=O)[C@H](CCN)NC(=O)[C@H](CC(C)C)NC(=O)[C@@H](CC2CCCCC2)NC(=O)[C@H](CCN)NC1=O)C(C)O (some centres unmarked) [Example 22] ({Octanoyl(6-Me)}-[Dab][Thr(3ξ)][Dab][Dab][Dab][dCha]L[Dab][Dab][Thr(3ξ)]; lactam 4-C) | MIC K. pneumoniae 062 (Klebsiella pneumoniae): 16 mg/L (≈ 13.2 µM); MIC K. pneumoniae 064 (Klebsiella pneumoniae): 4 mg/L (≈ 3.31 µM); MIC K. pneumoniae 066 (Klebsiella pneumoniae): 4 mg/L (≈ 3.31 µM); MIC K. pneumoniae 067 (Klebsiella pneumoniae): 64 mg/L (≈ 52.9 µM); MIC E. coli 059 (Escherichia coli): 2 mg/L (≈ 1.65 µM); MIC E. coli 060 (Escherichia coli): 4 mg/L (≈ 3.31 µM)
8 |  |  |  | 4 (≈ 3.44 µM) | 4 (≈ 3.44 µM) |  | >64 |  | 32 (≈ 27.6 µM) |  | 2 (≈ 1.72 µM) |  |  |  | 4 (≈ 3.44 µM) | 8 (≈ 6.89 µM) |  | CCCCCCCCc1ccc(C[C@H]2NC(=O)[C@H](CCN)NC(=O)[C@@H](NC(=O)[C@H](CN)NC(=O)[C@@H](NC(=O)[C@@H](N)CCN)C(C)O)CCNC(=O)[C@H]([C@@H](C)O)NC(=O)[C@H](CCN)NC(=O)[C@H](CCN)NC(=O)[C@H](CC(C)C)NC2=O)cc1 (stereo partly drawn) [Example 29, L-Dab-L-Thr-L-Dap-polymyxin [D-(4-octyl Phe)]-6 heptapeptide] (H-[Dab][Thr(3ξ)][Dap][Dab][Dab][X5]L[Dab][Dab]T; lactam 4-C) | 
